Laboratory results from paper PMC4091635 (Bioorganic & medicinal chemistry, 2014).

Tested on: transformed PSC (human pancreatic stellate cells)
Test: AlamarBlue Cell Viability Assay, PSC proliferation
Format: cell-based
Settings: mean of at least three independent experiments, NE: No effect

COc1cc(OC)c2c(=O)cc(-c3ccc(O)cc3)oc2c1 [Compound 6, 2-(4-Hydroxy-phenyl)-5,7-dimethoxy-chromen-4-one]
Inhibitory Effect (%) 20 μM: no significant antiproliferative effect
